Results on one compound are retold here after BindingDB's records for PubMed 35777269 (University of Maryland, 2022).

The target of the assay is Protein Wnt-3a (Human, UniProt P56704). Kind of assay: Inhibition of recombinant human Wnt3a in HEK293 cells assessed as Wnt signalling by measuring reduction in relative luminescence units incubated for 24 hrs by luciferase reporter assay.

Each structure is given as a SMILES string.

Chain of Protein Wnt-3a (P56704 whole entry): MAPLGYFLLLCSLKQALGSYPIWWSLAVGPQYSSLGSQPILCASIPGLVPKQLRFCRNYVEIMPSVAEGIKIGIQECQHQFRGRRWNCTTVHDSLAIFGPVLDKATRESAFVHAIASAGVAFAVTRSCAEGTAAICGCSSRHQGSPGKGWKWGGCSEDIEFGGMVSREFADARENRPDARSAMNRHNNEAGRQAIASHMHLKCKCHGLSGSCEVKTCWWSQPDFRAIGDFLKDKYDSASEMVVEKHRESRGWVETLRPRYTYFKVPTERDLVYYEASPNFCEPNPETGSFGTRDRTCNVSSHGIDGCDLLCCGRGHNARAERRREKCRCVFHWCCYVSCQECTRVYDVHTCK

As for `Cc1ccccc1-n1nnc(C(=O)Nc2ccc3ccccc3n2)c1C`, the half-maximal inhibitory concentration (IC50) was determined as 4.1 nM.
